Key:
Experiment in all cases: Fluo-4 AM calcium flux in HEK293T cells
[1] = target: T1, BdIav/BdNan heterotetramer (Bactrocera dorsalis, UniProt A0A8N4L2W2+A0ABM3JT49); format: cell-based
T1 construct: gene LOC105228865; ORFs co-expressed in HEK293T cells; 2:2 heterotetramer
T1 sequence (A0ABM3JT49 1-1159): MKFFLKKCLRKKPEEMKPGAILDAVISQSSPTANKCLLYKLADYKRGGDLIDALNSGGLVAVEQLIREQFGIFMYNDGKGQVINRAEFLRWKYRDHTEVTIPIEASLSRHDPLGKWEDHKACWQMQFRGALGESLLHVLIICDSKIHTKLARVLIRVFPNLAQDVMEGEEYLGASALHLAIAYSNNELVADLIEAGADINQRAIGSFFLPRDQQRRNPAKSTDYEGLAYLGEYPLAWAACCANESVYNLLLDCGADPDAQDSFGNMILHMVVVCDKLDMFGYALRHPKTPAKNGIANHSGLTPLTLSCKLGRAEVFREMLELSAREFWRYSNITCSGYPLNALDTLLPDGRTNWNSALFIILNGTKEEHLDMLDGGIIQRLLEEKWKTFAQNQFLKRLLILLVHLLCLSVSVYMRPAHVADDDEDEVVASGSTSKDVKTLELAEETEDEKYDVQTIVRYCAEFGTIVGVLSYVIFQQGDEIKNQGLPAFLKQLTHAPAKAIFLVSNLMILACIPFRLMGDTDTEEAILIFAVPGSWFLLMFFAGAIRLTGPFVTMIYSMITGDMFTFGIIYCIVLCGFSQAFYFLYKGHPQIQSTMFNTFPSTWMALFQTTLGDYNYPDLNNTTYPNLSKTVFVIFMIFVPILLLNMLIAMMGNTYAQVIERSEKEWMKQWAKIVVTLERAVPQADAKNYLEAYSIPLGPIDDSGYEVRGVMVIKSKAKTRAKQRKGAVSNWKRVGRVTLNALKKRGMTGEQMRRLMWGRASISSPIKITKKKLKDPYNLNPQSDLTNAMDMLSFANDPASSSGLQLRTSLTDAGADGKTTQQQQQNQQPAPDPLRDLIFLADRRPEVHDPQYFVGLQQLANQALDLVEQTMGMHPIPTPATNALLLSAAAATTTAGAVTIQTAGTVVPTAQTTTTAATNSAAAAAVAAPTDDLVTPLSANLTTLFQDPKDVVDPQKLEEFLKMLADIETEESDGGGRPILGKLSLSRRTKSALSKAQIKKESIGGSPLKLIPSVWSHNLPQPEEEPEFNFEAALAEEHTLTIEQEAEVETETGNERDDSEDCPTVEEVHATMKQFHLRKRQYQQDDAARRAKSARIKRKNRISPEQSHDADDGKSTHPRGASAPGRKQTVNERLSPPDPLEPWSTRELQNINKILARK
T1 sequence (A0A8N4L2W2 1-846): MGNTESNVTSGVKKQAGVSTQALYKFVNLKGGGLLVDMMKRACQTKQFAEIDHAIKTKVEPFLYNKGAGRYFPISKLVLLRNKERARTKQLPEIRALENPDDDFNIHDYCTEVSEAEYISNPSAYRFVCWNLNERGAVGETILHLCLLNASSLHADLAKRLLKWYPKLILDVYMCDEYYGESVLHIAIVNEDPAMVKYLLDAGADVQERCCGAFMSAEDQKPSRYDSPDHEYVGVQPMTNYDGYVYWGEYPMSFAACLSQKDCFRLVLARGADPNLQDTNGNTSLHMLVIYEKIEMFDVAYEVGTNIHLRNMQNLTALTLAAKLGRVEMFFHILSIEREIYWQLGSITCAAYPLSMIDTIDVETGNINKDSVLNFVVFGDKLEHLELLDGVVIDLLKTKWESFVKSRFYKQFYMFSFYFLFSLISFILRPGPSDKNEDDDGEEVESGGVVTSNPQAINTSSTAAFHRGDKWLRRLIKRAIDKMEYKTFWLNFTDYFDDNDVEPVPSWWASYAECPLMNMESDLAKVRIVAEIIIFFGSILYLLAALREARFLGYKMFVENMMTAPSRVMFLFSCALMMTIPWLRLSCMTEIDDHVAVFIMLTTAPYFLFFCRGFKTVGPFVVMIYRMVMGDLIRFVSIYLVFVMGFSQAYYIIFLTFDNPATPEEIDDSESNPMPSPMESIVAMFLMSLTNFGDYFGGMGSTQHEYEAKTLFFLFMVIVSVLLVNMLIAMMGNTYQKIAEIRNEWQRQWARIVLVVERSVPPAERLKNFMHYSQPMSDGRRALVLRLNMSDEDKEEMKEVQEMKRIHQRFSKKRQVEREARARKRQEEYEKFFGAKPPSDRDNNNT

[2] = tested on: T2, CcIav/CcNan heterotetramer; format: cell-based, Cacopsylla chinensis; details: agonist; 2:2 CcIav/CcNan
T2 construct: gene iav; full-length ORFs co-expressed in HEK293T cells from pcDNA3.1-mCherry-P2A; 2:2 heterotetramer

[3] = tested on: T3, HaIav/HaNan heterotetramer; format: cell-based, Harmonia axyridis; details: agonist; 2:2 molar ratio Iav/Nan
T3 construct: gene iav; ORFs co-expressed in HEK293T cells; 2:2 heterotetramer

[4] = tested on: T4, DcIav/DcNan heterotetramer; format: cell-based, Diaphorina citri; details: agonist; 2:2 molar ratio Iav/Nan
T4 construct: gene iav; ORFs co-expressed in HEK293T cells; 2:2 heterotetramer

## COc1cc(CNC(=O)CCCC/C=C/C(C)C)ccc1O [capsaicin]
[1]
  EC50: 24.5 µM
[2]
  EC50: 0.0224 µM
[3]
  EC50: 24.1 µM
[4]
  EC50: 57.8 µM

From paper PMC12677633, “Thermosensory TRPV Heterotetramers Drive Seasonal Polyphenism: Molecular Basis of CcIav/CcNan‐PKCα‐AKH/AKHR Signaling in Pear Psyllid Morph Transition” (Advanced Science, 2025)
